Reference: PubChem BioAssay AID463136 (University of Pittsburgh Molecular Library Screening Center, 2010)
Records with an inconclusive call do not appear. The source made the active and inactive calls. How the calls were made is not given here.

Tests used:
[1] = dynein cargo transport inhibitors, potency, dose response, imaging, high-content imaging (AID 463136); settings: HCS imaging, dynein-mediated cargo transport inhibition; inhibition at max concentration; at 50 µM; stronger effect = higher value;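 further: mouse mammary adenocarcinoma 3617.4 cells expressing GFP-tagged rat glucocorticoid receptor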; on inhibition: reference of the scale not given here
[2] = tested on: HCS imaging, dynein-mediated cargo transport inhibition; test: as above

SMILES | inhibition [1] [%] | IC50 [2]
COc1ccc(N2C(=O)CC(Sc3ncn[nH]3)C2=O)c(OC)c1 (stereo not given) | 5.17 | > 50 µM (inactive)
O=C(CCl)N(C/C=C/c1ccccc1)c1ccc2c(c1)OCCO2 | 78.1 | 27.1 µM
CCOc1ccccc1N1C(=O)CC(Sc2n[nH]c(-c3ccccc3)n2)C1=O (stereo not given) | 13.5 | > 50 µM (inactive)
COc1cc(/C=C/C(=O)c2ccc(F)cc2)cc(OC)c1OC | 69.5 | 36.7 µM
CC(C(Sc1ccccc1N)c1ccccc1)[N+](=O)[O-] (stereo not given) | 84.4 | 24.7 µM
C=C1C(=O)C=C2CN(C(=O)c3ccccc3)[C@@](Cc3ccc(F)cc3)(C(=O)OC)[C@@H]12 | 80.3 | 4 µM
Cc1ccc(N2C(=O)NC(=O)/C(=C\C=C\c3ccco3)C2=O)cc1C | 83.1 | 32.4 µM
O=[N+]([O-])c1ccc(N/N=C/c2ccc[nH]2)cc1 | 148 | 18 µM
Clc1ccc(-c2csc3ncnc(Cl)c23)cc1 | 72.9 | 40.5 µM
C=CCn1c(C)cc(C(=O)Cn2ncc(Cl)c(Cl)c2=O)c1C | 86.5 | 10.3 µM
O=[N+]([O-])c1ccc(Sc2nnnn2-c2ccccc2)nc1 | 81.6 | 7.59 µM
C=C1C(=O)[C@@]23[C@H](O)C[C@@H]4C(C)(C)CC[C@H](O)[C@@]4(C)[C@@H]2CC[C@@H]1[C@H]3O | 87.3 | 6.12 µM
Cc1nn(C)c(C(=O)Sc2cccc(Cl)c2)c1[N+](=O)[O-] | 10.5 | > 50 µM (inactive)
Cc1ccc(C2=NOC(=O)/C2=C\c2ccc(C)o2)cc1 | 79.8 | 39.9 µM
Cn1cc(C(=O)CCl)c2ccccc21 | 75 | 22.5 µM
O=C(NCc1cccnc1)/C(=C\c1ccc(-c2ccc(Br)cc2)o1)S(=O)(=O)c1ccccc1 | 55.1 | 39.4 µM
N#Cc1c(C(F)(F)F)cc(-c2ccccc2)nc1SCc1nc(N)nc(N2CCOCC2)n1 | 8.72 | > 50 µM (inactive)
COc1cc(C2Oc3ccccc3C=C2[N+](=O)[O-])cc(OC)c1OC (stereo not given) | 63.7 | 25.5 µM
O=C(c1ccccc1)c1ccccc1N1C(=O)C=CC1=O | 7.43 | > 50 µM (inactive)
O=C(NC1CCCCC1)C(c1cccnc1)N(C(=O)CCl)c1cccc(Cl)c1 (stereo not given) | 52.2 | 7.48 µM

SMILES | inhibition [1] [%] | IC50 [2]
CCN1/C(=C/c2ccc3ccc(C)cc3[n+]2CC)Sc2ccccc21 | 98.5 | 2.13 µM
CC1(C)CC(=O)C2=C(C1)OC1=C(C(=O)CC(C)(C)C1)C2c1ccc(O)cc1O | 65.8 | 22.6 µM
CN(C)CC(C(=O)c1ccccc1)c1ccccc1 (stereo not given) | 70.5 | 8.37 µM
COc1ccc(C(=O)/C=C/C(=O)N(CC(=O)NCCC(C)C)Cc2cccs2)c(O)c1 | 45.7 | > 50 µM (inactive)
CCN1CCN(C2=C(Cl)C(=O)N(Cc3ccccc3)C2=O)CC1 | 87.8 | 20.9 µM
COc1ccc(-n2nc(C#N)c(Cl)cc2=O)cc1 | 65.4 | 8.09 µM
Cc1nc([N+](=O)[O-])c(Br)n1CC(=O)c1ccccc1 | 82.1 | 1.96 µM
O=C1CCCCc2sc(Br)c([N+](=O)[O-])c2N1 | 66.9 | 7.06 µM
Cc1ccccc1-n1nnnc1Sc1nnnn1-c1ccccc1 | 87.8 | 17.6 µM
O=C(CCl)Nc1cc(-c2ccccc2)nn1-c1ccccc1 | 81.4 | 11.8 µM
Cc1cc(C)c(C)c(S(=O)(=O)ON2C(=O)c3ccccc3C2=O)c1C | -3.7 | > 50 µM (inactive)
CCOC(=O)N1C/C(=C\c2ccccc2)C(=O)/C(=C/c2ccccc2)C1 | 78.7 | 32.8 µM
COc1ccc(OC)c(N2C(=O)NC(=O)/C(=C\c3ccc([N+](=O)[O-])s3)C2=O)c1 | 86.7 | 11.9 µM
O=C(COc1ccc(/C=C\[N+](=O)[O-])cc1)N1CCOCC1 | 13.7 | > 50 µM (inactive)
COC(=O)CS(=O)(=O)c1nnc([C@H](Cc2ccccc2)NC(=O)OC(C)(C)C)o1 | 34.1 | > 50 µM (inactive)
CCn1c(=O)c([N+](=O)[O-])c(Cl)c2ccccc21 | 83.9 | 30.3 µM
O=C1C(Cl)=C(NCCN2CCCCC2)C(=O)c2ccccc21 | 63.5 | 31.8 µM
CC(C)(C)C(=O)/C=c1\s/c(=C\c2ccc(-c3ccc([N+](=O)[O-])cc3)o2)c(=O)n1CC(=O)NC(N)=O | 98.8 | 0.825 µM
CCCn1c(CC)nc([N+](=O)[O-])c1S(=O)(=O)c1ccccc1 | 85.2 | 7.21 µM
CC(C)(C)NC(=S)N/N=C\c1ccc(-c2ccc([N+](=O)[O-])cc2)o1 | 3.06 | > 50 µM (inactive)

SMILES | inhibition [1] [%] | IC50 [2]
COc1ccc(CN(CCC(c2ccccc2)c2ccc(OC(C)C)cc2)C(=O)CCl)cc1OC (stereo not given) | 34.9 | > 50 µM (inactive)
CC(=O)OCCN(C)c1cc(SC(C)C)c2nonc2c1[N+](=O)[O-] | 68.1 | 35.5 µM
Cc1cc(C)cc(N=Cc2[nH]c3ccc(Br)c(Cl)c3c2O)c1 | 122 | 27.6 µM
O=C(/C=C/c1cccc([N+](=O)[O-])c1)n1cnc2ccccc21 | 85.7 | 17.3 µM
Cc1ccc(-n2nnnc2CCl)cc1 | 80 | 12.2 µM
COc1ccc(C(=O)Cn2c(C)nc([N+](=O)[O-])c2Br)cc1 | 86.4 | 3.56 µM
C=C1C(=O)O[C@H]2C[C@@H](C)[C@@H]3C=CC(=O)[C@@]3(C)C[C@H]12 | 89.6 | 8.71 µM
CCOC(=O)c1cn(-c2c(Cl)cccc2Cl)c2cc(Cl)c([N+](=O)[O-])cc2c1=O | 82.8 | 29 µM
O=C(CCl)Nc1cc(SCC(O)CO)cc([N+](=O)[O-])c1 (stereo not given) | 88 | 10.5 µM
COc1ccc(-c2nnc(Sc3nc4ccccc4o3)c3ccccc23)cc1 | 88.8 | 27.2 µM
CCN1C(=O)C(=C/C=C/c2ccco2)C(=O)N(CC)C1=S | 75.1 | 41.3 µM
CC(=O)N1/C(=C/c2ccc(N(C)C)cc2)C(=O)c2ccccc21 | 78.9 | 29.9 µM
O=C1NC(=O)N(c2ccccc2)C(=O)/C1=C/c1ccc([N+](=O)[O-])s1 | 86.7 | 13.4 µM
Cc1nc2c(=O)n(C)c(=O)n(C)c2nc1Cl | 62.9 | 9.82 µM
Cc1ccc(NC(=O)c2cc(N3C(=O)C=CC3=O)ccc2N2CCOCC2)cc1 | -6.6 | > 50 µM (inactive)
CC(=O)OCCNc1cc(SCc2ccco2)c2nonc2c1[N+](=O)[O-] | 59.9 | 42.1 µM
Cc1[nH]c2ccccc2c1/C=N/Nc1ccc([N+](=O)[O-])cc1 | 132 | 24.8 µM
C=CCN1C(=O)NC(=O)/C(=C/C=C/c2ccccc2)C1=O | -33.3 | > 50 µM (inactive)
O=C(CN(c1cccc(C(F)(F)F)c1)S(=O)(=O)c1ccc(Cl)c([N+](=O)[O-])c1)NCc1ccccc1 | 15.7 | > 50 µM (inactive)
Cc1cccc2cc3c(N)c(C(=O)N4CCCc5ccccc54)sc3nc12 | 116 | 35.2 µM
